A short description of this data set: Solubility study of dapivirine. The conditions noted are these: for solubility: 37 °C, aqueous with cosolvent or surfactant or cyclodextrin, thermodynamic from solid; for Time to reach saturation: 37° C. The class given is physicochemical. On the procedure:
HPLC quantification of dapivirine was conducted as follows. The HPLC system (Agilent 1050) consisted of a solvent module, quaternary pump module and a variable wavelength UV detector. For analysis of release and solubility study samples, an alkyl amide column (Supelcosil™ ABZ+Plus 3 μm, 3.3 cm×4.6 mm ID, Supelco, Bellefonte, Pa.) was used with a gradient of 50:50 acetonitrile and water to 100% acetonitrile (both containing 0.1% v/v trifluoroacetic acid, TFA) in 4 minutes at a flow rate of 1 mL/min. The retention time of dapivirine was 1.1 min. A linear calibration curve of dapivirine was obtained in the range of 1-100 ng/injection (r^2>0.99) at the detection wavelength of 286 nm. The quantification limit of HPLC for dapivirine was 0.65 ng/injection (corresponds to 2 μl of a 1 μM solution) with a signal to noise ratio greater than 10. A longer method was developed for the stability study; a C-18 column (Hypersil BDS-C18, 10 cm×4.0 mm ID, […], Thermo Electron Corporation, Waltham, Mass.) was used with acetonitrile (A) and water (B) both containing 0.1% v/v TFA as eluent at a flow rate of 1 mL/min. A gradient of 30:70 A:B to 70:30 A:B was applied in 7 minutes with retention time of dapivirine at 5.7 minutes. The HPLC method was modified for LC/MS analysis: the flow rate was reduced to 0.5 mL/min; a gradient of 30:70 A:B to 70:30 A:B in 14 minutes; the TFA concentration in the eluents was 0.05% v/v and the retention time for dapivirine was 10.5 minutes.
Solubility studies of dapivirine were conducted to determine the appropriate sink conditions for the in vitro release studies. Dapivirine is a hydrophobic molecule; therefore a co-solvent system that can provide sink conditions (solubility greater than 3 times the maximum concentration achieved in the release medium) during dapivirine release study was needed. Since a co-solvent system consisting of 50:50 v/v i-prOH:water has been utilized previously for long-term release studies of dapivirine from silicone rings^11,18, the solubility of dapivirine was determined in 50:50 and 25:75 v/v i-prOH:water solutions. Additionally, solubility of dapivirine in liposome dispersions was evaluated in an attempt to utilize them as biorelevant sink conditions.^14,21 The liposome dispersions of 10 mg/mL in 25 mM pH 4.2 acetate buffer (osmolarity adjusted to 310 mOsm/kg with NaCl) and 25 mM pH 7.6 phosphate buffer (osmolarity adjusted to 310 mOsm/kg with NaCl) were utilized. (See in vitro release studies in Example 4 for preparation of liposome dispersions.) Dapivirine (10 mg) was dispersed in test solutions (2 mL) and shaken at 37° C. at 200 rpm. Aliquots of 200 μL were withdrawn at 24 h, 48 h and 72 h. At each time point, the aliquots were centrifuged immediately for 2 minutes at 16000 g, 100 μL of the supernatant was diluted 1:10 using 100% isopropanol and quantified by HPLC. The solubility was determined by a calibration curve generated from known concentrations of dapivirine solutions in i-prOH.

≈ marks a conversion by molar mass, not a printed value.

`Cc1cc(C)c(Nc2ccnc(Nc3ccc(C#N)cc3)n2)c(C)c1` [dapivirine, 4-[[4-[(2,4,6-trimethylphenyl)amino]pyrimidin-2-yl]amino]benzonitrile]: the solubility (usually the concentration that dissolves in the medium under given conditions) was found to be 844 µM (≈ 278 µg/mL) (10 mg/mL liposome dispersion in pH 4.2 acetate buffer, 10 mg/mL pH 4.2 liposome dispersion); 165 µM (≈ 54.4 µg/mL) (10 mg/mL liposome dispersion in pH 7.6 phosphate buffer, 10 mg/mL pH 7.6 liposome dispersion); 93 µM (≈ 30.6 µg/mL) (25:75 v/v i-prOH:water, 25:75 i-prOH:water); 3310 µM (≈ 1090 µg/mL) (50:50 v/v i-prOH:water, 50:50 i-prOH:water). The “Time to reach saturation” value is given as 48 h (10 mg/mL pH 4.2 liposome dispersion), 48 h (10 mg/mL pH 7.6 liposome dispersion), 48 h (25:75 i-prOH:water) and 24 h (50:50 i-prOH:water). Further, the dapivirine solubility (25:75 v/v i-prOH:water solution) was found to be 93 μM/L.
